Experimental data reported in US6080746A, “Methods and compositions for the prophylaxis and treatment of cytomegalovirus infections” (priority 1991, dated 2000).
Values after ≈ are worked out from the molar mass of the structure shown.

Experiments:
[1] = test system: CMV; assay: ED50 antiviral efficacy against CMV in human foreskin fibroblast cells; type: cell-based; settings: Human betaherpesvirus 5, read-out: ED50 (median dose at which 50% antiviral efficacy against CMV is produced)
Experimental: The ED50 value (median dose at which 50% antiviral efficacy against CMV is produced) was 0.06 μg/mL for D-2'-CdG and 0.20 for DHPG in human foreskin fibroblast cells.

[2] = test system: MRC5 cells; assay: Drug cytotoxicity (gross morphology) in MRC5 cell monolayer cultures (Tables 4 and 5); type: cell-based, human
Experimental: (§1) The effectiveness of racemic 2'-CdG and of D-2'-CdG on CMV yields in MRC5 cell monolayer cultures was determined by a plaque assay with the results set forth in Tables 4 and 5:
(§2) ^a Drug treatment began immediately following the virus adsorption
(§3) ^a Drug treatment began immediately following the 1 1/2 hour

[3] = test system: human CMV; assay: Intravitreal human CMV infection in New Zealand white rabbits, intravitreal treatment; type: in vivo; settings: 100 μg in 100 μl intravitreal, 48-hour intervals from day 4
Text: The symptoms included vitritis, iritis, retinal pathology (micro hemorrhages and focal necrosis of the retinal
surface), corneal stromal haze and neovascularization, and corneal endothelial pigmented precipitates. […] The intravitreal route offers some significant advantages for intraocular infections including: 1) delivery of maximal concentrations of drug to the desired site of action; 2) increased potential for sustained release (i.e. longer half-life, T1/2) of the drug; and 3) reduced potential for systemic toxicity.

[4] = test system: CMV; assay: CMV yields in MRC5 cell monolayer cultures by plaque assay (Tables 4 and 5); type: cell-based; settings: for CMV Yield: virus control 1.1 × 10^5; for CMV Yield (log10): virus control 5.1
Experimental: as §1, §2, §3

[5] = test system: CMV; assay: Reduction of CPE in CMV-infected MRC5 cell monolayer cultures (Tables 4 and 5); type: cell-based; settings: Human betaherpesvirus 5, MRC5, read-out: Reduction (%) of CPE by D-2'-CDG at Time of Virus Harvest
Experimental: as §1, §2, §3

[6] = test system: CMV; assay: MIC50 against CMV in MRC5 cells; type: cell-based
[7] = test system: CMV; assay: Intravitreal injection for a week, tolerability and antiviral effect; type: in vivo; settings: 100 μg/kg every 48 hours intravitreally for a week
Text: Effective dosages may be administered also in sustained release dosage form.

[8] = test system: human CMV; assay: Intravitreal human CMV infection in pigmented rabbits, intravitreal treatment; type: in vivo; parameters: key to vitritis, maximum development: 1-2+: mild; settings: 80 μl (so in the source) of 2'-CdG
[9] = test system: human CMV; assay: as above; type: in vivo; parameters: key to retinal pathology level: 1-2+: focal hemmorhages and development of localized retinal necrosis; key to Vitritis scores: 1-2+: mild; key to vitritis: 2+: mild vitritis
Experimental: Animal models for human CMV disease were prepared by inoculating human CMV by intravitreal injection into pigmented rabbits. The animals developed in 3-4 days post inoculation a mild to moderate vitritis, focal retinal microhemorrhages, and localized retinal necrosis.
Dosages of 2'-CdG of various amounts in 100 μl of sterile water were injected into rabbit models beginning on day 3 post inoculation and repeated on day 5 and day 7N.
Development and resolution of HCMV intraocular disease in the 80 μg therapy group was similar to disease development in the 100 μg therapy group as described below.
Seven pigmented rabbits were infected with human CMV by intravitreal injection. Beginning on day 3 PI, these animals received 3 successive injections of 100 μg 2'CdG in 50 μl on day 3, 4, and 5 PI. […] Vitritis scores in these animals were 1-2+ (mild) and retinal pathology was reduced to 1-2+ level (focal hemmorhages and development of localized retinal necrosis). […] Initial virus recovery assays indicate that human CMV titers were reduced to 0 or 1 log by day 2 post therapy.

[10] = test system: cytomegalovirus; settings: in vivo; cited from earlier work
[11] = test system: human diploid embryonic lung cells (MRC5); assay: Drug cytotoxicity (gross morphology) in MRC5 cells (Table 1); settings: 320 μg/ml
Text: Also evaluated under the same conditions were prior art drugs Ara-A and ganciclovir (DHPG). In each case, drug treatment began 0 hr. postinfection.

[12] = test system: human cytomegalovirus (strain AD 169); assay: CMV yield in MRC5 cells (Table 1); type: cell-based
Text: (§4) In each case, drug treatment began 0 hr. postinfection.

[13] = test system: HCMV; assay: Virus yield-reduction assay, combination with DHPG on HCMV replication in MRC5 cells (Table 2); type: cell-based, human CMV; settings: (±)-2'-CDG 0
Text: Effect of Combination Treatment^a With (±)-2'-CDG and
DHPG on HCMV Replication in MRC5 Cells
(Virus Yield-Reduction Assay)

[14] = test system: human cytomegalovirus (strain AD 169); assay: Inhibition of human cytomegalovirus in MRC5 cells by plaque reduction assay (reduction of CPE, MIC50; Table 1); type: cell-based; settings: Human betaherpesvirus 5, MRC5, treatment 0 hr postinfection, read-out: Reduction (%) of CPE at Time of Harvest
Text: as §4

[15] = 40 μg per 100 μl injection, intravitreal
[16] = 100 μg in 50 μl daily, day 3, 4 and 5 PI

SMILES: Nc1nc2c(ncn2[C@@H]2C[C@H](CO)[C@@H](O)C2)c(=O)[nH]1 [D-2'-CdG]
- EC50 [1]: 0.06 µg/mL (≈ 0.226 µM)
- Drug Cytotoxicity (gross morphology) ([2]; Table 5, 0.1 μM): 0
- Drug Cytotoxicity (gross morphology) ([2]; Table 5, 0.32 μM): 0
- Drug Cytotoxicity (gross morphology) ([2]; Table 5, 1.0 μM): 0
- Drug Cytotoxicity (gross morphology) ([2]; Table 5, 3.2 μM): 0
- Drug Cytotoxicity (gross morphology) ([2]; Table 5, 10 μM): 0
- Drug Cytotoxicity (gross morphology) ([2]; Table 5, 32 μM): v. sl. toxicity
- Drug Cytotoxicity (gross morphology) ([2]; Table 5, 100 μM): slight toxicity
- Drug Cytotoxicity (gross morphology) ([2]; Table 5, 320 μM): toxic
- clinical outcome compared with ganciclovir (DHPG) [3]: clinically better than treatment with ganciclovir (DHPG)
- development of retinal pathology, severity of vitritis and iritis vs placebo [3]: effective in reducing the development of retinal pathology and in reducing the severity of the vitritis and iritis
- CMV Yield ([4]; Table 5, 0.1 μM): 3.8 × 10^4 PFU/mL
- CMV Yield (log10) ([4]; Table 5, 0.1 μM): 4.6 log10 PFU/mL
- CMV Yield ([4]; Table 5, 0.32 μM): 1.4 × 10^4 PFU/mL
- CMV Yield (log10) ([4]; Table 5, 0.32 μM): 4.1 log10 PFU/mL
- CMV Yield ([4]; Table 5, 1.0 μM): 5.4 × 10^3 PFU/mL
- CMV Yield (log10) ([4]; Table 5, 1.0 μM): 3.7 log10 PFU/mL
- CMV Yield ([4]; Table 5, 3.2 μM): 8.4 × 10^2 PFU/mL
- CMV Yield (log10) ([4]; Table 5, 3.2 μM): 2.9 log10 PFU/mL
- CMV Yield ([4]; Table 5, 10 μM): 2 × 10^1 PFU/mL
- CMV Yield (log10) ([4]; Table 5, 10 μM): 1.3 log10 PFU/mL
- CMV Yield ([4]; Table 5, 32 μM): 0 PFU/mL
- CMV Yield ([4]; Table 5, 100 μM): 0 PFU/mL
- inhibition at 0.1 µM ([5]; Table 5, 0.1 μM): 0%
- inhibition at 0.32 µM ([5]; Table 5, 0.32 μM): 0%
- inhibition at 1 µM ([5]; Table 5, 1.0 μM): 10%
- inhibition at 3.2 µM ([5]; Table 5, 3.2 μM): 10%
- inhibition at 10 µM ([5]; Table 5, 10 μM): 25%
- inhibition at 32 µM ([5]; Table 5, 32 μM): 50%
- inhibition at 100 µM ([5]; Table 5, 100 μM): 50%
- IC50 ([6]; Human betaherpesvirus 5): < 0.029 µg/mL
- MIC50 relative to the MIC50 of DL-2'-CdG ([6]; same conditions): about half (or less)

SMILES: Nc1nc2c(ncn2[C@@H]2C[C@H](CO)[C@@H](O)C2)c(=O)[nH]1 [2'-CdG]
- antiviral effectiveness [7]: antivirally effective
- tolerability [7]: well tolerated
- development of vitritis and of retinal pathology ([8]; intravitreal): effective in reducing the development of vitritis (1-2+ maximum development) and in altering the observed development of retinal pathology
- vitritis, maximum development ([8]; intravitreal): 1-2+
- Retinal blood vessel engorgement and focal microhemorrhages ([8]; days 3, 4 and 5 post inoculation): Retinal blood vessel engorgement was evident and focal microhemorrhages were present
- Retinal necrosis at sacrifice [9, 15]: evident in all animals at sacrifice
- retinal hemorrhages [9, 15]: focal retinal hemorrhages
- vitritis [9, 15]: 2+
- controlling the development of disease ([9]; 40 μg per 100 μl injection, intravitreal, from day 3 post inoculation): moderately effective in controlling the development of disease
- Vitritis scores [9, 16]: 1-2+
- human CMV-induced vitritis and retinal pathology (preliminary) [9, 16]: effective in reducing the development of human CMV-induced vitritis and retinal pathology
- progressive disease by day 7 post inoculation [9, 16]: had not developed the progressive disease
- retinal pathology level [9, 16]: 1-2+
- progressive disease ([9]; 2'CdG at two day intervals): progressive disease that is observed
- moderate to severe retinal necrosis and detachment ([9]; lower concentration 2'CdG therapies): observed in the lower concentration 2'CdG therapies

SMILES: Nc1nc(O)c2ncn(COC(CO)CO)c2n1 [DHPG, dihydroxy propoxymethyl guanine, reference compound]
- toxicity [10]: dose-limiting toxicity
- EC50 [1]: 0.2 µg/mL (≈ 0.784 µM)
- Drug Cytotoxicity (gross morphology) [11]: sl. toxicity
- CMV Yield ([12]; 0.1 μg/ml, virus control 5.5 (DHPG 5.3)): 4.7 log10 CCID50 /ml
- CMV Yield ([12]; 0.32 μg/ml, virus control 5.5 (DHPG 5.3)): 4.6 log10 CCID50 /ml
- CMV Yield ([12]; 1.0 μg/ml, virus control 5.5 (DHPG 5.3)): 3.6 log10 CCID50 /ml
- CMV Yield ([12]; 3.2 μg/ml, virus control 5.5 (DHPG 5.3)): 2.3 log10 CCID50 /ml
- CMV Yield ([12]; 10 μg/ml, virus control 5.5 (DHPG 5.3)): 1.0 log10 CCID50 /ml
- CMV Yield ([12]; 32 μg/ml, virus control 5.5 (DHPG 5.3)): 0 log10 CCID50 /ml
- CMV Yield ([12]; 100 μg/ml, virus control 5.5 (DHPG 5.3)): 0 log10 CCID50 /ml
- CMV Yield ([12]; 320 μg/ml, virus control 5.3): 0 log10 CCID50 /ml
- Reduction in CMV Yield ([13]; DHPG 1.0 μM): 0.5 Log10 PFU/ML
- Reduction in CMV Yield ([13]; DHPG 3.2 μM): 1.3 Log10 PFU/ML
- Reduction in CMV Yield ([13]; DHPG 10.0 μM): 1.8 Log10 PFU/ML
- inhibition at 0.1 µg/mL ([14]; 0.1 μg/ml): 0%
- inhibition at 0.32 µg/mL ([14]; 0.32 μg/ml): 5%
- inhibition at 1 µg/mL ([14]; 1.0 μg/ml): 30%
- inhibition at 3.2 µg/mL ([14]; 3.2 μg/ml): 60%
- inhibition at 10 µg/mL ([14]; 10 μg/ml): 95%
- inhibition at 32 µg/mL ([14]; 32 μg/ml): 100%
- inhibition at 100 µg/mL ([14]; 100 μg/ml): 100%
- inhibition at 320 µg/mL ([14]; 320 μg/ml): 100%
